One may read the IC50 as the concentration that gives 50% inhibition. A high value points to lower potency.

Data on two compounds can be found in BindingDB's records for doi:10.1021/np020058m (Kyoto Pharmaceutical University, 2002).

SMILES strings stand for the structures.

This assay addresses Aldo-keto reductase family 1 member B1 (Rattus norvegicus, UniProt P07943). Nature of the assay: Inhibition of aldose reductase in rat lens homogenates by fluorophotometer.

As for `CC(=O)O[C@H]1[C@H](Oc2c(-c3ccc(O)c(O)c3)oc3cc(O)cc(=O)c-3c2O)O[C@H](CO[C@@H]2O[C@@H](C)[C@H](O)[C@@H](O)[C@H]2O)[C@@H](O)[C@@H]1O` [3-O-alpha-L-rhamnopyranosyl(1->6)-2''-O-acetyl-beta-D-glucopyranoside], the midpoint of inhibition, the IC50, lay at 18 µM.
The figure for `C[C@@H]1O[C@@H](O[C@H]2[C@H](Oc3c(-c4ccc(O)c(O)c4)oc4cc(O)cc(=O)c-4c3O)O[C@H](CO)[C@H](O)[C@@H]2O)[C@H](O)[C@H](O)[C@H]1O` [quercetin 3-O-neohesperidoside] is 18 µM.
